Measurements reported in article PMC8708875 (Pharmaceutics, 2021).
Where two headings read alike, the source gives them in different places.

Legend:
Type in all cases: cell-based, mouse
[1] = tested on: differentiated C2C12 cells; assay: Glucose uptake in C2C12 myotubes; details: peptides 100 µM, insulin 100 nM; 30 min, 37 °C; 3H-glucose (1 µCi/mL) or 2-NBDG (80 µM)
Glut4 = assay: GLUT4 translocation assay (subcellular fractions, Western blot)
Protocol: C2C12 differentiated myotubes were starved with free-FBS low glucose DMEM for 3 h, and then treated with saline or 5 µM of BMS-536924 insulin receptor inhibitor (Sigma-Aldrich, Sao Paulo, Brazil) for 30 min. Next, C2C12 were incubated in the presence of either vehicle, insulin (100 nM) or Ric4 (100 µM) for 30 min. As described by Tortorella and Pilch, 2002, cells were washed three times with PBS, and homogenized with 40 strokes of a glass tissue grinder in buffer containing sucrose 255 mM, disodium 4 mM, EDTA 20 mM, 4-(2-hydroxyethyl)-1-piperazineethanesulfonic acid (HEPES) 10 mM, pH 7.4, leupeptin 10 µM, pepstatin 1µM, aprotinin 1 µM, phenylmethylsulfonyl fluoride (PMSF) 1 mM, and benzamidine 5 mM (HES buffer). The homogenate was centrifuged at 19,000× g for 20 min. The pellet was saved (P1). The supernatant was recovered and centrifuged at 40,000× g for 20 min. The pellet (MF1) was resuspended in HES buffer. The supernatant was further centrifuged at 180,000× g for 1.5 h and the pellet (MF2) was resuspended in HES buffer. Both pellets MF1 and MF2, referred to as microsomal fraction (MF) correspond to high- and low-density microsomes. The pellet from the first centrifugation (P1) was resuspended in HES buffer, layered onto a 1.12 M sucrose cushion in 20 mM HEPES and 1 mM disodium EDTA, and centrifuged at 100,000× g for 1 h. The pellet (nuclear/endoplasmic reticulum fraction -N/ER) was resuspended in a buffer containing 20 mM Tris (pH 7.4), 50 mM NaCl, 2% Nonidet P-40, 0.5% deoxycholate, 0.2% SDS, and the protease inhibitor cocktail (#P8340; Sigma Aldrich, SP, Brazil). The interphase of the sucrose cushion was collected and pelleted at 40,000× g for 20 min. This PM-containing pellet (PM) was resuspended in PBS plus protease inhibitors. All centrifugations were performed at 4 °C with a Beckman Coulter Ultracentrifuge. Total protein of all samples was determined using Pierce™ BCA Protein Assay Kit (ThermoFisher, Sao Paulo, Brazil). Proteins were submitted to Western blot analysis as described above, using as primary antibody anti-Glut4 (1:1000, Cell Signaling, Boston, MA, USA).
(§1) Figure 4 Glucose uptake and GLUT4 translocation induced by Ric4 in C2C12 cells. C2C12 cells were previously incubated in serum-free and glucose-free DMEM medium, then incubated with HEPES buffer for 30 min and then incubated for a further 30 min in glucose-uptake buffer containing vehicle, Ric4 (100 µM), or insulin (100 nM) in the presence of ^3H-glucose (1 µCi/mL) or 2-NBDG (80 µM). After incubations cells were lysed with 50 μL of 0.1 N NaOH and fluorescence or radiation of aliquots from the lysate were measured (A). Epididymal adipose tissue explants (20–25 mg) were incubated in Krebs–Ringer bicarbonate buffer containing glucose 5.5 mM and 1 μCi/mL of ^3H-deoxyglucose supplemented with 2% fatty acid-free for 30 min at 37 °C in the presence or absence of insulin (100 nM) or Ric4 (100 µM). The explants were processed to evaluate the uptake of ^3H-deoxyglucose (B). Myotubes were previously incubated in serum-free and glucose-free DMEM medium and then treated with control vehicle PBS or Ric4 (100 µM) for 30 min. Proteins from subcellular fractions: N/ER (C), microsomal (D), plasma membrane (E), were isolated and the expression Glut4 was analyzed by Western blot. Images were quantified using ImageJ 1.49 software. The statistical comparisons were performed using analysis of variance (ANOVA), followed by ad-hoc Tukey’s test using GraphPad Prism software * p < 0.05; # p < 0.05; **** p < 0.0001.

[2] = tested on: epididymal adipose tissue explants; assay: Glucose uptake in epididymal adipose tissue explants; details: Ric4 100 µM, insulin 100 nM; 3H-deoxyglucose 1 µCi/mL, Krebs-Ringer bicarbonate buffer, 37 °C
Protocol: Glucose uptake was evaluated in adipose tissue explants from mice bearing or not deletion of insulin receptor in adipocytes essentially as previously described. Briefly, explants of epididymal adipose tissue (20–25 mg) were incubated in 1 mL of Krebs–Ringer bicarbonate buffer (in mmol/L): 118 NaCl, 4.8 KCl, 1.25 CaCl2, 1.2 KH2PO4, 1.2 MgSO4, 25 NaHCO3, and 5.5 glucose and 1 μCi/mL of ^3H-deoxyglucose (New England Radiochemicals, Boston, MA, USA) supplemented with 2% fatty acid-free BSA (Sigma, Oakville, ON, Canada), 7.4. Vials were incubated at 37 °C for […] in the presence or absence of insulin (100 nM) or Ric4 peptide (100 µM). After 30 min, explants were extensively washed and processed to evaluate the uptake of ^3H deoxyglucose as previously described.
as §1

[3] = C2C12 myotubes, Ric4 100 µM, insulin 100 nM, 30 min, Western blot

| Substance | glucose uptake in differentiated C2C12 cells [1] | Glut4 presence in microsomal membranes (Glut4; [3]) | translocation of Glut4 to plasma membrane (Glut4; [3]) | translocation of Glut4 to rough endoplasmic reticulum (RER) membranes (N/ER fraction) (Glut4; [3]) | glucose uptake in adipose tissue explants from C57BL6N WT mice [2] | glucose uptake in adipose tissue explants from conditional knockout mice depleted from insulin receptor [2] | Glut4 presence in microsomal membranes (Glut4) |
| --- | --- | --- | --- | --- | --- | --- | --- |
| Insulin | stimulate glucose uptake | not observed | induced translocation of Glut4 to plasma membrane | not observed | stimulate glucose uptake | neither insulin nor Ric4 were capable of inducing glucose uptake | – |
| LASVSTVLTSKYR [Ric4, intracellular peptide derived from hemoglobin alpha subunit, last 13 C-terminal amino acids] | stimulate glucose uptake | – | induced translocation of Glut4 to plasma membrane | increased | stimulate glucose uptake | neither insulin nor Ric4 were capable of inducing glucose uptake | decreasing |
